Literature values as cited in patent EP4756025A1, “DSRNA TARGETING MAPT AND PHARMACEUTICAL USE THEREOF” (Tuojie Biotech (Shanghai) Co., Ltd., priority 2023, dated 2025).

Conditions: octanol-water partition coefficient, example in the definition of lipophilic moiety

Row | logKow | Structure (SMILES)
1 | about 0.7 | NCCCCCCO [6-aminohexanol]
2 | 10.7 | CC(C)CCC[C@@H](C)[C@H]1CC[C@H]2[C@@H]3CC=C4C[C@@H](OC(=O)NCCCCCCO)CC[C@]4(C)[C@H]3CC[C@]12C [cholesteryl N-(hexan-6-ol)carbamate]
